Data taken from patent US7875638B2, “Synthesis of epothilones, intermediates thereto, analogues and uses thereof” (Sloan-Kettering Institute for Cancer Research, priority 2002, dated 2011).
Entries after “also recorded” stand apart in the source; their conditions may differ. Like-named read-outs stand apart in the source and are kept apart here. Marks after values point to notes of the source that are not given here.

Key:
[1] = test system: RPMI-8226 (human multiple myeloma cell line); experiment: Global gene expression (Affymetrix chip AU133 2.0); assay type: cell-based
CCRF-CEM/Taxol = assay type: cell-based, human; conditions: Homo sapiens, CCRF-CEM, XTT assay following 72 h inhibition
OPM-2 myeloma cells = experiment: Cell cycle analysis (propidium iodide DNA staining), OPM-2; assay type: cell-based, human
Source text: FIG. 95 is cell cycle analysis as determined by Propidium iodide DNA staining. […] The two drugs induced the same patter of cell cycle arrest.

primary CD138 MM cells = experiment: Apoptosis of primary myeloma cells; assay type: cell-based, human; conditions: cells obtained from patient marrow
HS-27A = experiment: XTT cell growth inhibition, HS-27A; assay type: cell-based; conditions: Homo sapiens, Marrow stroma, XTT tetrazonium assay, read-out: IC50 (nM), HS-27A
HS-5 = experiment: XTT cell growth inhibition, HS-5; assay type: cell-based; conditions: Homo sapiens, HS5; Marrow stroma; XTT tetrazonium assay; read-out: IC50 (nM), HS-5
[2] = test system: Human marrow stromal cell lines, HS-27A and HS-5; experiment: XTT cell proliferation, normal stromal cells; conditions: read-out: IC50, stromal lines HS-27A and HS-5
Source text: Human marrow stromal cell lines, HS-27A and HS-5 immortalized by E6/E7 genes, have normal marrow stromal function, which support stem cell self-renewal, and proliferation.

CAG myeloma cells = experiment: Disseminated CAG xenograft myeloma mice; conditions: 20 mg/kg
Description: 10×10^6 CAG myeloma cells engineered with Luc-eGFP-TK fusion gene were injected intravenously into the mouse-tail vein, and the treatment was started when decent myeloma cells implantation was detected by bioluminescence imaging on day 7.

H929 = experiment: XTT cell growth inhibition, H929; assay type: cell-based; conditions: Homo sapiens, NCI-H929; Myeloma; XTT tetrazonium assay; read-out: IC50 (nM), H929
in vitro = conditions: human, s9
Description: Stability of epothilones in mouse and in human liver S9 fraction. The stability study was carried out with a fully automated HPLC system which consisted of a Prospekt-2 (Spark Holland, Netherlands) sample preparation system and an Agilent 1100 HPLC system. Briefly, the Prospekt 2 picked up a C8 extraction cartridge and washed it with acetonitrile and water. The Agilent autosampler, set at 37° C., picked up 20 μl of the sample, loaded it onto the cartridge, washed it with water, then the Prospekt-2 diverted the mobile phase stream through the extraction cartridge onto the analytical column, Reliance Stable Bond C8 4×80 mm with guard column (MacMod, Chadds Ford, Pa.) and the eluent was monitored at 250 nm. […] Sample preparation involved the addition of equal volumes of plasma to PBS for a total volume of 300-400 μl, filtered, and the addition of 0.5-2 μl of the substrate (20 mM) to achieve about 30-50 mAU at 250 nm in the HPLC analysis. For pooled human liver microsome S9 fraction (Xeno Tech, Lenex, Kans.), 20 μl (400 μg) or S9 fraction was mixed with 280 μl of PBS then proceeded as above. The sampling period was controlled by the autosampler and peak area data were collected to compare the rate of disappearance of the parent compound.
Stability of epothilones in mouse and in human liver S9 fraction: The stability study was carried out with a fully automated HPLC system which consisted of a Prospekt-2 (Spark Holland, Netherlands) sample preparation system and an Agilent 1100 HPLC system. Briefly, the Prospekt 2 picked up a C8 extraction cartridge and washed it with acetonitrile and water. The Agilent autosampler, set at 37° C., picked up 20 μl of the sample, loaded it onto the cartridge, washed it with water, then the Prospekt-2 diverted the mobile phase stream through the extraction cartridge onto the analytical column, Reliance Stable Bond C8 4×80 mm with guard column (MacMod, Chadds Ford, Pa.) and the eluent was monitored at 250 nm. […] Sample preparation involves the addition of equal volumes of plasma to PBS for a total volume of 400 μl, filtered, and the addition of 0.5-2 μl of the substrate (20 mM) to achieve about 30-50 mAU at 250 nm in the HPLC analysis. For pooled human liver microsome S9 fraction (Xeno Tech, Lenex, Kans.), 20 μl (400 μg) or S9 fraction was mixed with 280 μl of PBS then proceeds as above. The sampling period was controlled by the autosampler and peak area data were collected to compare the rate of disappearance of the parent compound.

RPMI8226 myeloma cells = experiment: Pulse exposure, washout and cell count; assay type: cell-based, human
[3] = test system: human mammary carcinoma MX-1 xenograft; experiment: MX-1 xenograft in nude mice; conditions: for Body weight on the 16th day after treatment, % of the pretreatment control: Q2Dx6
CAG myeloma cell lines = experiment: Annexin V staining, CAG; assay type: cell-based, human; conditions: 24 hours treatment
Source text: In early apoptotic cells, the membrane phospholipids phosphatidylserine (PS) is translocated from the inner to the outer leaflet of the plasma membrane, thereby exposing PS to the external cellular environment. Annexin V is a 35-36 kD Ca^2+ dependent phospholipids-binding protein that has a high affinity for PS, and binds to cells with exposed PS. In conjunction with a vital dye such as 7-amino-actinomycin (7-AAD) staining dead cells, this assay allows to identify early apoptotic cells. […] Note that X-axis is Annexin staining and Y-axis is 7-AAD staining.

HCT-116 = experiment: XTT cell growth inhibition, HCT-116; assay type: cell-based; conditions: Homo sapiens, HCT-116; Colon Ca; XTT tetrazonium assay; read-out: IC50 (nM), HCT-116
[4] = test system: myeloma cell lines (RPMI8226, CAG); experiment: XTT cell proliferation, myeloma cell lines; assay type: cell-based, human
Ovcar-3 = experiment: XTT cell growth inhibition, Ovcar-3; assay type: cell-based; conditions: Homo sapiens, OVCAR-3; Ovarian Ca; XTT tetrazonium assay; read-out: IC50 (nM), Ovcar-3
caspase 3 = experiment: Caspase 3 activation by Western blot; assay type: cell-based, human; conditions: myeloma cells
Source text: It is not clear whether caspase is involved in this process. Firstly, we investigated the activation of caspase 3, an effector caspase in the caspase pathway, in myeloma cells, by Western blot. […] Immunohistochemical staining of CAG myeloma cells using antibody specific to cleaved caspase-3 was used to show cytoplasmic and perinuclear localization features in apoptotic cells. […] Secondly, we attempted to assay the activity of caspase 8 and 9, initiator caspase in the caspase pathway, by fluorometric method. […] Note that increased caspase 9 activity was more prominent than caspase 8. The signals triggering the activation of caspase 8 or 9 are actively under investigation.

MDA MB435 = experiment: XTT cell growth inhibition, MDA MB435; assay type: cell-based; conditions: Homo sapiens, MDA-MB-435; Breast Ca; XTT tetrazonium assay; read-out: IC50 (nM), MDA MB435
[5] = test system: human mammary carcinoma MX-1 xenograft; conditions: mouse, in vivo
[6] = 18 hr gene difference, Fludelone vs dEpoB treated cells

SMILES: C/C(=C\c1csc(C)n1)[C@@H]1C/C=C(/C(F)(F)F)C/C=C/[C@H](C)[C@H](O)[C@@H](C)C(=O)C(C)(C)[C@@H](O)CC(=O)O1 [Compound 29, 26-trifluoro-trans-9,10-dehydro-12,13-desoxyepothilone B]
- Fold change in expression, ZFY ([1]; 18 h): +2.14 fold
- Fold change, CEB1 ([1]; 18 h): −2.00 fold
- Fold change, DUSP4 ([1]; 18 h): −2.14 fold
- Fold change, HMT-1 ([1]; 18 h): +11.3 fold
- Fold change, IFIT1 ([1]; 18 h): −2.00 fold
- Fold change, OAS2 ([1]; 18 h): −2.00 fold
- Fold change, PLSCR1 ([1]; 18 h): −2.00 fold
- Fold change, PPAP2C ([1]; 18 h): −2.14 fold
- Fold change, TRIM22 ([1]; 18 h): −2.00 fold
- Fold change, GIP3 [1, 6]: −5.28 fold
- Fold change, IFI 27 [1, 6]: −5.28 fold
- Fold change, IFITM1 [1, 6]: −3.25 fold
- Fold change, MX1 [1, 6]: −2.30 fold
- Fold change in expression, G1P3 ([1]; 18 hrs, ×10 IC50 dose, vs control): −3.73 fold
- IC50 (CCRF-CEM/Taxol; Table 1-2, read-out: IC50 (μM), CCRF-CEM/Taxol): 0.0057 µM
- IC50 (CCRF-CEM/Taxol; Table 1-3, read-out: IC50, C/Taxol): 0.0057 µM
- Cell cycle arrest (OPM-2 myeloma cells): arrested in G2M phase starting from 6 hours and absolutely blocked at 24 hours
- Tumor apoptosis within 24 hrs (primary CD138 MM cells): induced tumor apoptosis within 24 hrs
- IC50 (HS-27A): 102 ± 8 nM
- IC50 (HS-5): 96 ± 7 nM
- IC50 [2]: 90 to 100 nM
- Survival after transplanting CAG cells (Kaplan-Meier) (CAG myeloma cells): > 80 days
- Survival versus controls (CAG myeloma cells; intraperitoneal): at least doubled the survival time than controls
- Tumor burden by bioluminescence imaging (CAG myeloma cells; listed as Fludelone): significant decreased tumor photon emissions; also recorded: significantly decreased tumor burden
- IC50 (H929): 9.2 ± 1.9 nM
- half-life (in vitro): 10.5 ± 2.3 h
- Decrease of the number of cells from input (RPMI8226 myeloma cells): ~50%
- Decrease of tumor cell numbers (RPMI8226 myeloma cells): 50%
- Cell death after pulse exposure (RPMI8226 myeloma cells; 24 hrs exposure): all cells being dead by 48 hrs
- Body weight gain during the last three doses ([3]; 10 mg/kg, Q2DX12): 6%
- Maximal body weight decrease ([3]; 10 mg/kg, Q2DX12): 12%
- Tumor free after Q2Dx6 6 hr-iv. infusion (mice) ([3]; 20 mg/kg): four out of four
- Therapeutic outcome in MX-1 xenograft model ([3]; 20 mg/kg and 30 mg/kg, Q2Dx6, 6 hour infusions): curative
- Time for body weight to return to pretreatment control level after suspension of treatment ([3]; 20 mg/kg or 30 mg/kg Q2Dx6, i.v.-6 hr infusion): 12 to 18 days
- Body weight on the 16th day after treatment, % of the pretreatment control ([3]; 20 mg/kg): 109%
- Reappearance of the tumor on the 20th day after stopping treatment ([3]; 20 mg/kg, Q2Dx6, 6 hour infusion): no reappearance
- Tumor reappearance on 27th day after stopping treatment (mice) ([3]; 20 mg/kg, Q2Dx6, 6 hr iv infusion): 2 out of 4
- Tumor reappearance on 27th day after stopping treatment (mice) ([3]; 20 mg/kg, Q2Dx6, 6 hr iv infusion, listed as 26-trifluoro-9,10-dehydro-12,13-dexoxy-epothilone B): 2/4
- Transient drop in body weight ([3]; 20 mg/kg, Q2Dx6, 6 hr. iv infusion): up to 26%
- Decrease in body weight without lethality ([3]; 30 mg/kg): 27%
- Body weight on the 16th day after treatment, % of the pretreatment control ([3]; 30 mg/kg): 98%
- Tumor disappearance earlier than the 20 mg/kg dosage ([3]; 30 mg/kg, Q2Dx6, 6 hour iv infusion): 2 to 3 days
- Relapse after suspension of treatment ([3]; 30 mg/kg, Q2Dx6, 6 hr iv infusion): absence of any relapse for over two months
- Maximal tolerated dose ([3]; Q2Dx6, 6 hour infusions): ~30 mg/kg
- Cell kill ([3]; assuming a tumor doubling time of 4 days): > 8.5 log
- Tumor relapse after cessation of treatment ([3]; extra large MX-1, 25 mg/kg Q3Dx5 then Q3Dx4): No relapse was observed on D180
- Relapse (49 days after stopping treatment) ([3]; female nude mice, large MX-1, 30 mg/kg orally): no relapse on D115
- Tumor disappearance ([3]; female nude mice, large MX-1, 30 mg/kg orally Q2Dx7 then Q2Dx9): All three mice's tumor disappeared on D40, 45 and 48
- Doses required for MX-1 tumor disappearance ([3]; mouse, in vivo): nine
- Duration of MX-1 tumor disappearance ([3]; mouse, in vivo): 64 days
- Mice relapsed on day 10 after suspension of treatment ([3]; mouse, in vivo): 0/4
- Mouse tumors disappeared, large MX-1 tumors (0.5 g) ([3]; mouse, in vivo): 4/4
- Relapse after suspension of treatment ([3]; mouse, in vivo): no relapse after 62 days
- Tumor disappeared during the resting period (mice) ([3]; mouse, in vivo): 2 out of 5
- Tumor free after Q2Dx6 6 hr-iv. infusion (mice) ([3]; mouse, in vivo): 4/4
- Tumor reappeared on day 10 after administration (mice) ([3]; mouse, in vivo): 0/4^[b]
- Tumor relapse after cessation of treatment ([3]; mouse, in vivo): no tumor relapse in all 5 animals on D165
- Tumor shrinkage during the resting period of 9 days (D34-D43) ([3]; mouse, in vivo): > 99.3%
- Tumor shrinkage ([3]; mouse, in vivo, iv, 25 mg/kg): > 97.4%
- Tumor disappearance (mice) ([3]; mouse, in vivo, po, 30 mg/kg): 2 out of 4
- Tumor disappearance after additional two doses (mice) ([3]; mouse, in vivo, po, 30 mg/kg): 4 out of 4
- Tumor free following the cessation of treatment ([3]; mouse, in vivo, listed as 26-trifluoro-9,10-trans-dehdyro-epothilone D): 3.8 months
- Tumor free following the cessation of treatment ([3]; mouse, in vivo, listed as Fludelone): 4.3 months
- Apoptosis (Annexin V / 7-AAD) (CAG myeloma cell lines): majority of cells either enter apoptosis or are dead
- IC50 (HCT-116): 3.6 ± 1.3 nM
- Potency relative to dEpoB on MM cell lines [4]: ~5 fold
- IC50 ([4]; Homo sapiens, RPMI-8226, read-out: IC50, myeloma cell lines (RPMI8226, CAG)): 7.6 to 36.7 nM
- IC50 (Ovcar-3): 1.1 ± 0.4 nM
- Cleaved caspase 3 (Western blot) (caspase 3): increased 17 kd cleaved caspase 3
- IC50 (MDA MB435): 5.8 ± 2.8 nM
- Maximal body weight decrease [5]: Only minor loss of body weight
- Maximal drop of the body weight ([5]; po, 30 mg/kg): 15%
